Laboratory results as given in patent publication US20210254272A1, “TEXTILES HAVING ANTIMICROBIAL PROPERTIES” (Livinguard AG, priority 2015, published 2021).

Test: Leaching test: 100 g fabric soaked in 10 liters stagnant distilled water, 3 days (72 hours)
Type: physicochemical
Details: for Leaching of active ingredients: exhaust 80° C. 60 min, cured 180° C. 2 min, post wash
Method in brief: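 Test and control fabrics were soaked together in a closed jar. Leached substances in the water were then determined by standard analytical methods.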

## CCCC1COC(Cn2cncn2)(c2ccc(Cl)cc2Cl)O1 (centres unmarked) [Propiconazole, propiconazole]
0.2% each in mixture (o.w.f), exhaust 80° C., 60 min, curing 180° C., 2 min, unwashed
  Leaching of active ingredients (in ppm): 4 ppm
0.5% each in mixture (o.w.f), exhaust 80° C., 60 min, curing 180° C., 2 min, unwashed
  Leaching of active ingredients (in ppm): 6 ppm
1.0% each in mixture (o.w.f), exhaust 80° C., 60 min, curing 180° C., 2 min, unwashed
  Leaching of active ingredients (in ppm): 8 ppm
Exhaust + Wash + pad + Wash, exhaust 0.1% o.w.f. each in mixture, 1 gm/liter pad
  Leeching in ppm: 0.5 ppm
Exhaust + Wash + pad + Wash, exhaust 0.1% o.w.f. each in mixture, 5 gm/liter pad
  Leeching in ppm: 0.7 ppm
Exhaust + Wash + pad + Wash, exhaust 0.1% o.w.f. each in mixture, 10 gm/liter pad
  Leeching in ppm: 0.6 ppm
Exhaust + Wash + pad + Wash, exhaust 0.25% o.w.f. each in mixture, 1 gm/liter pad
  Leeching in ppm: 7 ppm
Exhaust + Wash + pad + Wash, exhaust 0.25% o.w.f. each in mixture, 5 gm/liter pad
  Leeching in ppm: 7 ppm
Exhaust + Wash + pad + Wash, exhaust 0.25% o.w.f. each in mixture, 10 gm/liter pad
  Leeching in ppm: 20 ppm
Exhaust + Wash + pad + Wash, exhaust 0.5 (% o.w.f) each in mixture, 1 gm/liter pad
  Leeching in ppm: 5 ppm
Exhaust + Wash + pad + Wash, exhaust 0.5 (% o.w.f) each in mixture, 5 gm/liter pad
  Leeching in ppm: 15 ppm
Exhaust + Wash + pad + Wash, exhaust 0.5 (% o.w.f) each in mixture, 10 gm/liter pad
  Leeching in ppm: 26 ppm
Exhaust + Wash + pad + Wash, exhaust 1.0% o.w.f. each in mixture, 1 gm/liter pad
  Leeching in ppm: 10 ppm
Exhaust + Wash + pad + Wash, exhaust 1.0% o.w.f. each in mixture, 5 gm/liter pad
  Leeching in ppm: 19 ppm
Exhaust + Wash + pad + Wash, exhaust 1.0% o.w.f. each in mixture, 10 gm/liter pad
  Leeching in ppm: 34 ppm
Exhaust + pad + Wash, exhaust 0.1% o.w.f. each in mixture, 1 gm/liter pad
  Leeching in ppm: 149 ppm
Exhaust + pad + Wash, exhaust 0.1% o.w.f. each in mixture, 5 gm/liter pad
  Leeching in ppm: 241 ppm
Exhaust + pad + Wash, exhaust 0.1% o.w.f. each in mixture, 10 gm/liter pad
  Leeching in ppm: 256 ppm
Exhaust + pad + Wash, exhaust 0.25% o.w.f. each in mixture, 1 gm/liter pad
  Leeching in ppm: 231 ppm
Exhaust + pad + Wash, exhaust 0.25% o.w.f. each in mixture, 5 gm/liter pad
  Leeching in ppm: 259 ppm
Exhaust + pad + Wash, exhaust 0.25% o.w.f. each in mixture, 10 gm/liter pad
  Leeching in ppm: 546 ppm
Exhaust + pad + Wash, exhaust 0.5 (% o.w.f) each in mixture, 1 gm/liter pad
  Leeching in ppm: 475 ppm
Exhaust + pad + Wash, exhaust 0.5 (% o.w.f) each in mixture, 5 gm/liter pad
  Leeching in ppm: 538 ppm
Exhaust + pad + Wash, exhaust 0.5 (% o.w.f) each in mixture, 10 gm/liter pad
  Leeching in ppm: 649 ppm
Exhaust + pad + Wash, exhaust 1.0% o.w.f. each in mixture, 1 gm/liter pad
  Leeching in ppm: 578 ppm
Exhaust + pad + Wash, exhaust 1.0% o.w.f. each in mixture, 5 gm/liter pad
  Leeching in ppm: 689 ppm
Exhaust + pad + Wash, exhaust 1.0% o.w.f. each in mixture, 10 gm/liter pad
  Leeching in ppm: 853 ppm
Exhaust + pad, exhaust 0.1% o.w.f. each in mixture, 1 gm/liter pad
  Leeching in ppm: 194 ppm
Exhaust + pad, exhaust 0.1% o.w.f. each in mixture, 5 gm/liter pad
  Leeching in ppm: 284 ppm
Exhaust + pad, exhaust 0.1% o.w.f. each in mixture, 10 gm/liter pad
  Leeching in ppm: 345 ppm
Exhaust + pad, exhaust 0.25% o.w.f. each in mixture, 1 gm/liter pad
  Leeching in ppm: 317 ppm
Exhaust + pad, exhaust 0.25% o.w.f. each in mixture, 5 gm/liter pad
  Leeching in ppm: 346 ppm
Exhaust + pad, exhaust 0.25% o.w.f. each in mixture, 10 gm/liter pad
  Leeching in ppm: 354 ppm
Exhaust + pad, exhaust 0.5 (% o.w.f) each in mixture, 1 gm/liter pad
  Leeching in ppm: 365 ppm
Exhaust + pad, exhaust 0.5 (% o.w.f) each in mixture, 5 gm/liter pad
  Leeching in ppm: 456 ppm
Exhaust + pad, exhaust 0.5 (% o.w.f) each in mixture, 10 gm/liter pad
  Leeching in ppm: 867 ppm
Exhaust + pad, exhaust 1.0% o.w.f. each in mixture, 1 gm/liter pad
  Leeching in ppm: 596 ppm
Exhaust + pad, exhaust 1.0% o.w.f. each in mixture, 5 gm/liter pad
  Leeching in ppm: 810 ppm
Exhaust + pad, exhaust 1.0% o.w.f. each in mixture, 10 gm/liter pad
  Leeching in ppm: 1456 ppm
Exhaust +Wash + pad, exhaust 0.1% o.w.f. each in mixture, 1 gm/liter pad
  Leeching in ppm: 89 ppm
Exhaust +Wash + pad, exhaust 0.1% o.w.f. each in mixture, 5 gm/liter pad
  Leeching in ppm: 154 ppm
Exhaust +Wash + pad, exhaust 0.1% o.w.f. each in mixture, 10 gm/liter pad
  Leeching in ppm: 232 ppm
Exhaust +Wash + pad, exhaust 0.25% o.w.f. each in mixture, 1 gm/liter pad
  Leeching in ppm: 184 ppm
Exhaust +Wash + pad, exhaust 0.25% o.w.f. each in mixture, 5 gm/liter pad
  Leeching in ppm: 215 ppm
Exhaust +Wash + pad, exhaust 0.25% o.w.f. each in mixture, 10 gm/liter pad
  Leeching in ppm: 321 ppm
Exhaust +Wash + pad, exhaust 0.5 (% o.w.f) each in mixture, 1 gm/liter pad
  Leeching in ppm: 369 ppm
Exhaust +Wash + pad, exhaust 0.5 (% o.w.f) each in mixture, 5 gm/liter pad
  Leeching in ppm: 413 ppm
Exhaust +Wash + pad, exhaust 0.5 (% o.w.f) each in mixture, 10 gm/liter pad
  Leeching in ppm: 578 ppm
Exhaust +Wash + pad, exhaust 1.0% o.w.f. each in mixture, 1 gm/liter pad
  Leeching in ppm: 469 ppm
Exhaust +Wash + pad, exhaust 1.0% o.w.f. each in mixture, 5 gm/liter pad
  Leeching in ppm: 574 ppm
Exhaust +Wash + pad, exhaust 1.0% o.w.f. each in mixture, 10 gm/liter pad
  Leeching in ppm: 657 ppm
Exhaust 60° C., solution dosage 1% o.w.f, process time 60 min
  Leaching of active ingredients (in ppm): 24 ppm
Exhaust 60° C., solution dosage 1% o.w.f, process time 90 min
  Leaching of active ingredients (in ppm): 12 ppm
Exhaust 60° C., solution dosage 1% o.w.f, process time 120 min
  Leaching of active ingredients (in ppm): 13 ppm
Exhaust 60° C., solution dosage 1% o.w.f, process time 180 min
  Leaching of active ingredients (in ppm): 13 ppm
Exhaust 60° C., solution dosage 1% o.w.f, process time 240 min
  Leaching of active ingredients (in ppm): 15 ppm
Mixture 0.2% o.w.f. each
  Leaching of active ingredients: 0.3 ppm
Mixture 0.5% o.w.f. each
  Leaching of active ingredients: 0.3 ppm
Mixture 1% o.w.f. each
  Leaching of active ingredients: 0.9 ppm
Exhaust 80° C., 1% o.w.f, 60 min, curing 170° C., curing dwell time 0.5 min
  Leaching of active ingredients (in ppm): 28 ppm
Exhaust 80° C., 1% o.w.f, 60 min, curing 170° C., curing dwell time 1.0 min
  Leaching of active ingredients (in ppm): 24 ppm
Exhaust 80° C., 1% o.w.f, 60 min, curing 170° C., curing dwell time 1.5 min
  Leaching of active ingredients (in ppm): 21 ppm
Exhaust 80° C., 1% o.w.f, 60 min, curing 170° C., curing dwell time 2.0 min
  Leaching of active ingredients (in ppm): 15 ppm
Exhaust 80° C., 1% o.w.f, 60 min, curing 170° C., curing dwell time 2.5 min
  Leaching of active ingredients (in ppm): 17 ppm
Exhaust 80° C., 1% o.w.f, 60 min, curing 170° C., curing dwell time 3.0 min
  Leaching of active ingredients (in ppm): 17 ppm
Exhaust 80° C., 1% o.w.f, 60 min, curing 180° C., curing dwell time 0.5 min
  Leaching of active ingredients (in ppm): 24 ppm
Exhaust 80° C., 1% o.w.f, 60 min, curing 180° C., curing dwell time 1.0 min
  Leaching of active ingredients (in ppm): 12 ppm
Exhaust 80° C., 1% o.w.f, 60 min, curing 180° C., curing dwell time 1.5 min
  Leaching of active ingredients (in ppm): 13 ppm
Exhaust 80° C., 1% o.w.f, 60 min, curing 180° C., curing dwell time 2.0 min
  Leaching of active ingredients (in ppm): 3 ppm
Exhaust 80° C., 1% o.w.f, 60 min, curing 180° C., curing dwell time 2.5 min
  Leaching of active ingredients (in ppm): 13 ppm
Exhaust 80° C., 1% o.w.f, 60 min, curing 180° C., curing dwell time 3.0 min
  Leaching of active ingredients (in ppm): 13 ppm
Exhaust 80° C., 1% o.w.f, 60 min, curing dwell time at 190° C. (title): 0.5 min
  Leaching of active ingredients (in ppm): 23 ppm
Exhaust 80° C., 1% o.w.f, 60 min, curing dwell time at 190° C. (title): 1.0 min
  Leaching of active ingredients (in ppm): 12 ppm
Exhaust 80° C., 1% o.w.f, 60 min, curing dwell time at 190° C. (title): 1.5 min
  Leaching of active ingredients (in ppm): 12 ppm
Exhaust 80° C., 1% o.w.f, 60 min, curing dwell time at 190° C. (title): 2.0 min
  Leaching of active ingredients (in ppm): 10 ppm
Exhaust 80° C., 1% o.w.f, 60 min, curing dwell time at 190° C. (title): 2.5 min
  Leaching of active ingredients (in ppm): 27 ppm
Exhaust 80° C., 1% o.w.f, 60 min, curing dwell time at 190° C. (title): 3.0 min
  Leaching of active ingredients (in ppm): 34 ppm
